Measurements taken from patent publication US12636285B2 (ViiV Healthcare Company, priority 2019, dated 2026).
Counter-ions that a name gives are not always drawn.

Columns and labels:
[1] = Drug interaction studies with oral rilpivirine
[2] = Drug interaction studies with oral cabotegravir; settings: cabotegravir 30 mg once daily; No Effect = 1.00
[3] = Established and other potentially significant drug interactions (Table 5); settings: trial-based or predicted
Solubility in water = format: physicochemical
From the text: The cabotegravir tablet contains cabotegravir, as cabotegravir sodium. […] The tablet film-coating contains hypromellose, polyethylene glycol, and titanium dioxide.

[4] = rilpivirine 150 mg once daily, No Effect = 1.00
[5] = rilpivirine 75 mg once daily, No Effect = 1.00
[6] = rilpivirine 25 mg once daily, No Effect = 1.00

Compound: O=c1[nH]cnc2c1ncn2[C@H]1CC[C@@H](CO)O1 [Didanosine]
- Geometric Mean Ratio of coadministered drug AUC with/without EDURANT [1, 4]: 1.12
- Geometric Mean Ratio of coadministered drug Cmax with/without EDURANT [1, 4]: 0.96

Compound: C#C[C@]1(O)CC[C@H]2[C@@H]3CCC4=CC(=O)CC[C@@H]4[C@H]3CC[C@@]21CC [Levonorgestrel]
- Geometric Mean Ratio of AUC of coadministered drug with/without cabotegravir [2]: 1.12
- Geometric Mean Ratio of Cmax of coadministered drug with/without cabotegravir [2]: 1.05
- Geometric Mean Ratio of Cτ or C24 of coadministered drug with/without cabotegravir [2]: 1.07

Compound: Cc1ncc2n1-c1ccc(Cl)cc1C(c1ccccc1F)=NC2 [Midazolam]
- Geometric Mean Ratio of AUC of coadministered drug with/without cabotegravir [2]: 1.10
- Geometric Mean Ratio of Cmax of coadministered drug with/without cabotegravir [2]: 1.09

Compound: CO[C@H]1/C=C/O[C@@]2(C)Oc3c(C)c(O)c4c(c3C2=O)C2=NC3(CCN(CC(C)C)CC3)NC2=C(NC(=O)/C(C)=C\C=C\[C@H](C)[C@H](O)[C@@H](C)[C@@H](O)[C@@H](C)[C@H](OC(C)=O)[C@@H]1C)C4=O [Rifabutin]
- Effect on Concentration ([3]; with antimycobacterial rifabutin): ↔Rifabutin

Compound: CC(=O)Nc1ccc(O)cc1 [Acetaminophen]
- Geometric Mean Ratio of coadministered drug AUC with/without EDURANT [1, 4]: 0.91
- Geometric Mean Ratio of coadministered drug Cmax with/without EDURANT [1, 4]: 0.97

Compound: CCCc1nn(C)c2c(=O)[nH]c(-c3cc(S(=O)(=O)N4CCN(C)CC4)ccc3OCC)nc12 [Sildenafil]
- Geometric Mean Ratio of coadministered drug AUC with/without EDURANT [1, 5]: 0.97
- Geometric Mean Ratio of coadministered drug Cmax with/without EDURANT [1, 5]: 0.93

Compound: CO[C@H]1/C=C/O[C@@]2(C)Oc3c(C)c(O)c4c(O)c(c(/C=N/N5CCN(C)CC5)c(O)c4c3C2=O)NC(=O)/C(C)=C\C=C\[C@H](C)[C@H](O)[C@@H](C)[C@@H](O)[C@@H](C)[C@H](O)[C@@H]1C [25-desacetylrifampin]
- Geometric Mean Ratio of coadministered drug AUC with/without EDURANT [1, 4]: 0.91
- Geometric Mean Ratio of coadministered drug Cmax with/without EDURANT [1, 4]: 1.00

Compound: C#C[C@]1(O)CC[C@H]2[C@@H]3CCc4cc(O)ccc4[C@H]3CC[C@@]21C [Ethinyl estradiol]
- Geometric Mean Ratio of coadministered drug AUC with/without EDURANT [1, 6]: 1.14
- Geometric Mean Ratio of coadministered drug Cmax with/without EDURANT [1, 6]: 1.17
- Geometric Mean Ratio of coadministered drug Cmin with/without EDURANT [1, 6]: 1.09
- Geometric Mean Ratio of AUC of coadministered drug with/without cabotegravir [2]: 1.02
- Geometric Mean Ratio of Cmax of coadministered drug with/without cabotegravir [2]: 0.92
- Geometric Mean Ratio of Cτ or C24 of coadministered drug with/without cabotegravir [2]: 1.00

Compound: CC(=O)N1CCN(c2ccc(OCC3COC(Cn4ccnc4)(c4ccc(Cl)cc4Cl)O3)cc2)CC1 (stereo not drawn) [Ketoconazole]
- Geometric Mean Ratio of coadministered drug AUC with/without EDURANT [1, 4]: 0.76
- Geometric Mean Ratio of coadministered drug Cmax with/without EDURANT [1, 4]: 0.85
- Geometric Mean Ratio of coadministered drug Cmin with/without EDURANT [1, 4]: 0.34

Compound: CO[C@H]1/C=C/O[C@@]2(C)Oc3c(C)c(O)c4c(O)c(c(/C=N/N5CCN(C)CC5)c(O)c4c3C2=O)NC(=O)/C(C)=C\C=C\[C@H](C)[C@H](O)[C@@H](C)[C@@H](O)[C@@H](C)[C@H](OC(C)=O)[C@@H]1C [Rifampin]
- Geometric Mean Ratio of coadministered drug AUC with/without EDURANT [1, 4]: 0.99
- Geometric Mean Ratio of coadministered drug Cmax with/without EDURANT [1, 4]: 1.02

Compound: CC(C)OC(=O)OCOP(=O)(CO[C@H](C)Cn1cnc2c(N)ncnc21)OCOC(=O)OC(C)C [Tenofovir disoproxil fumarate]
- Geometric Mean Ratio of coadministered drug AUC with/without EDURANT [1, 4]: 1.23
- Geometric Mean Ratio of coadministered drug Cmax with/without EDURANT [1, 4]: 1.19
- Geometric Mean Ratio of coadministered drug Cmin with/without EDURANT [1, 4]: 1.24

Compound: CN(C)C(=N)N=C(N)N [Metformin]
- Geometric Mean Ratio of coadministered drug AUC with/without EDURANT [1, 6]: 0.97
- Geometric Mean Ratio of coadministered drug Cmax with/without EDURANT [1, 6]: 1.02

Compound: Cc1nnc(C(=O)NC(C)(C)c2nc(C(=O)NCc3ccc(F)cc3)c(O)c(=O)n2C)o1 [Raltegravir]
- Geometric Mean Ratio of coadministered drug AUC with/without EDURANT [1, 6]: 1.09
- Geometric Mean Ratio of coadministered drug Cmax with/without EDURANT [1, 6]: 1.10
- Geometric Mean Ratio of coadministered drug Cmin with/without EDURANT [1, 6]: 1.27

Compound: C[C@H]1O[C@@H](O[C@H]2[C@@H](O)C[C@H](O[C@H]3[C@@H](O)C[C@H](O[C@H]4CC[C@@]5(C)[C@H](CC[C@@H]6[C@@H]5C[C@@H](O)[C@]5(C)[C@@H](C7=CC(=O)OC7)CC[C@]65O)C4)O[C@@H]3C)O[C@@H]2C)C[C@H](O)[C@@H]1O [Digoxin]
- Geometric Mean Ratio of coadministered drug AUC with/without EDURANT [1, 6]: 0.98
- Geometric Mean Ratio of coadministered drug Cmax with/without EDURANT [1, 6]: 1.06

Compound: C[C@H]1CO[C@@H]2Cn3cc(C(=O)NCc4ccc(F)cc4F)c(=O)c(O)c3C(=O)N12 [Cabotegravir sodium]
- solubility in water (Solubility in water): slightly soluble

Compound: CCCc1nn(C)c2c(=O)[nH]c(-c3cc(S(=O)(=O)N4CCNCC4)ccc3OCC)nc12 [N-desmethyl-sildenafil]
- Geometric Mean Ratio of coadministered drug AUC with/without EDURANT [1, 5]: 0.92
- Geometric Mean Ratio of coadministered drug Cmax with/without EDURANT [1, 5]: 0.90

Compound: CCC(=O)C(CC(C)N(C)C)(c1ccccc1)c1ccccc1 (stereo not drawn) [Methadone]
- rilpivirine Cmin with/without coadministered drug ([1]; rilpivirine 25 mg once daily, comparison based on historic controls): ↔^b
- Effect on Concentration ([3]; with narcotic analgesic methadone): ↓Methadone

Compound: Lopinavir/ritonavir
- Geometric Mean Ratio of coadministered drug AUC with/without EDURANT [1, 4]: 0.99
- Geometric Mean Ratio of coadministered drug Cmax with/without EDURANT [1, 4]: 0.96
- Geometric Mean Ratio of coadministered drug Cmin with/without EDURANT [1, 4]: 0.89
- Geometric Mean Ratio of rilpivirine AUC with/without coadministered drug [1, 4]: 0.99
- Geometric Mean Ratio of rilpivirine Cmax with/without coadministered drug [1, 4]: 0.96
- Geometric Mean Ratio of rilpivirine Cmin with/without coadministered drug [1, 4]: 0.89

Compound: C#C[C@]1(O)CC[C@H]2[C@@H]3CCC4=CC(=O)CC[C@@H]4[C@H]3CC[C@@]21C [Norethindrone]
- Geometric Mean Ratio of coadministered drug AUC with/without EDURANT [1, 6]: 0.89
- Geometric Mean Ratio of coadministered drug Cmax with/without EDURANT [1, 6]: 0.94
- Geometric Mean Ratio of coadministered drug Cmin with/without EDURANT [1, 6]: 0.99

Compound: CC(C)c1c(C(=O)Nc2ccc(O)cc2)c(-c2ccccc2)c(-c2ccc(F)cc2)n1CC[C@@H](O)C[C@@H](O)CC(=O)O [4-hydroxy-atorvastatin]
- Geometric Mean Ratio of coadministered drug AUC with/without EDURANT [1, 4]: 1.23
- Geometric Mean Ratio of coadministered drug Cmax with/without EDURANT [1, 4]: 1.28
